Consider 1 molecule from patent US12268683B2, “Compounds and methods for synergistic activation of M channels” (THE REGENTS OF THE UNIVERSITY OF CALIFORNIA, priority 2018, dated 2025).

One experiment deals with KCNQ1/KCNE2 (Homo sapiens, UniProt P51787). The experiment in a line: TEVC of KCNQ1/KCNE2 channels. Format: cell-based. From the text:
(§1) As previously described (12), we generated cRNA transcripts encoding human KCNA1, KCNE1, KCNE2, KCNE3, KCNQ1, KCNQ2, KCNQ3, KCNQ4 or KCNQ5 by in vitro transcription using the T7 polymerase mMessage mMachine kit (Thermo Fisher Scientific), after vector linearization, from cDNA sub-cloned into plasmids incorporating Xenopus laevis β-globin 5′ and 3′ UTRs flanking the coding region to enhance translation and cRNA stability. We quantified cRNA by spectrophotometry. We generated mutant KCNQ2 and KCNQ3 cDNAs by site-directed mutagenesis with a QuikChange kit (Stratagene, San Diego, Calif.) and prepared the cRNAs as above. We injected defolliculated stage V and VI Xenopus laevis oocytes (Ecocyte Bioscience, Austin, Tex. and Xenoocyte, Dexter, Mich., US) with KCNE and/or KCNQ cRNAs (5-20 ng). […]
(§2) We performed TEVC at room temperature using an OC-725C amplifier (Warner Instruments, Hamden, Conn.) and pClamp10 software (Molecular Devices, Sunnyvale, Calif.) 2-5 days after cRNA injection as described in the section above. […] We recorded currents in response to voltage pulses between −120 or −80 mV and +40 mV at 20 mV intervals from a holding potential of −80 mV, to yield current-voltage relationships, current magnitude, and for quantifying activation rate. We analyzed data using Clampfit (Molecular Devices) and Graphpad Prism software (GraphPad, San Diego, Calif., USA); values are stated as mean±SEM. […]

A further experiment concerns the target KCNQ2/KCNQ3-R242A (Homo sapiens, UniProt O43525+O43526, R242A). As to the kind of experiment: TEVC of KCNQ2/KCNQ3-R242A channels. The format is cell-based.
From the text: as §1, §2

As to `CCCCCCCCC/C=C/C=O` [(E)-2-dodecenal], the “effect on KCNQ1/KCNE2 (in words)” value at KCNQ1/KCNE2 was “minimal effects”. Also, on KCNQ2/KCNQ3-R242A, the “response of KCNQ2/KCNQ3-R242A (in words)” value is listed as “almost as much as wild-type KCNQ2/3”.
